From patent US9937151B2, “Carbapenem antibacterials with gram-negative activity” (priority 2010, dated 2018)
Converted amounts (≈) assume the structure as drawn.

System: G(−) bacterial strains
Test: Dilution antimicrobial susceptibility tests (MIC, NCCLS agar dilution / broth dilution)
Format: cell-based, Gram-negative organisms
Conditions: unit assumed
Description: The MIC (minimum inhibitory concentration) was determined by the NCCLS (National Committee for Clinical Laboratory Standards) methods 2000. Methods for dilution antimicrobial susceptibility testing for bacteria that growth aerobically (M7-A5, vol. 20, No. 2). The agar dilution method for determining antimicrobial susceptibility was carried out using Mueller-Hinton agar. A final inoculum of 10^4 CFU/spot was applied with an inoculation device. Broth dilution tests were performed with 5×10^5 CFU/well in 96 well plates. The susceptibilities of streptococci were determined by Mueller-Hinton agar supplemented with 5% sheep blood. All assays were run with the indicated control strains, available from the ATCC (American Type Culture Collection, Rockville, Md.).
Abbreviations used in Table 1 are defined as follows: Cf-R: Ceftazidime Resistance, Ci-R: Ciprofloxacin Resistance, Gen-R: Gentamycin Resistance, Imp-R: Imipenem Resistance, Mp-R: Meropenem Resistance, Ofx-R: Ofloxacin Resistance, B+: β-lactamase Production, AmpC: AmpC-lactamase Hyper production, CBPase: Carbapenemase Production.

[1] = strain #1 Acinetobacter calcoaceticus
[2] = strain #2 Acinetobacter baumannii, Cf-R, Ci-R
[3] = strain #3 Acinetobacter baumannii, Cf-R, Ci-R, Mp-I
[4] = strain #4 Acinetobacter baumannii, Cf-R, Imp-I, CBPase
[5] = strain #7 Enterobacter aerogenes
[6] = strain #8 Enterobacter cloacae, Cf-R, B+
[7] = strain #9 Enterobacter cloacae, Cf-R
[8] = strain #10 Escherichia coli, Ci-R
[9] = strain #11 Escherichia coli, Ci-R, AmpC
[10] = strain #15 Klebsiella pneumoniae
[11] = strain #16 Moraxella catarrhalis
[12] = strain #21 Providencia rettgeri
[13] = strain #22 Salmonella typhimurium
[14] = strain #25 Shigella dysenteriae
[15] = strain #28 Stenotrophomonas maltophilia
[16] = strain #29 Pseudomonas aeruginosa
[17] = strain #30 Pseudomonas aeruginosa
[18] = strain #31 Pseudomonas aeruginosa, Ofx-R
[19] = strain #32 Pseudomonas aeruginosa, Cf-R
[20] = strain #33 Pseudomonas aeruginosa, Ci-R
[21] = strain #34 Pseudomonas aeruginosa, Gen-R
[22] = strain #35 Pseudomonas aeruginosa, Ip-R
[23] = strain #36 Pseudomonas aeruginosa, Cf-R, Ci-R, Mp-R

SMILES	MIC [1] [µg/mL]	MIC [2] [µg/mL]	MIC [3] [µg/mL]	MIC [4] [µg/mL]	MIC (strain #5 Citrobacter diversus) [µg/mL]	MIC (strain #6 Citrobacter freundii) [µg/mL]	MIC [5] [µg/mL]	MIC [6] [µg/mL]	MIC [7] [µg/mL]	MIC [8] [µg/mL]	MIC [9] [µg/mL]	MIC (strain #12 Escherichia coli) [µg/mL]	MIC (strain #13 Escherichia coli) [µg/mL]	MIC (strain #14 Klebsiella oxytoca) [µg/mL]	MIC [10] [µg/mL]	MIC [11] [µg/mL]	MIC (strain #17 Morganella Morganii) [µg/mL]	MIC (strain #18 Morganella Morganii) [µg/mL]	MIC (strain #19 Proteus vulgaris) [µg/mL]	MIC (strain #20 Proteus mirabilis) [µg/mL]	also measured
C[C@@H](O)C1C(=O)N2C(C(=O)O)=C(CN3CC[C@H](NC(=O)C(F)(F)F)C3)[C@H](C)C12 (stereo partly drawn) [Compound 37]	2 (≈ 4.93 µM)	4 (≈ 9.87 µM)	8 (≈ 19.7 µM)	4 (≈ 9.87 µM)	0.5 (≈ 1.23 µM)	0.5 (≈ 1.23 µM)	2 (≈ 4.93 µM)	0.5 (≈ 1.23 µM)	1 (≈ 2.47 µM)	0.5 (≈ 1.23 µM)	0.5 (≈ 1.23 µM)	0.5 (≈ 1.23 µM)	0.5 (≈ 1.23 µM)	0.5 (≈ 1.23 µM)	1 (≈ 2.47 µM)	≤ 0.008	2 (≈ 4.93 µM)	2 (≈ 4.93 µM)	1 (≈ 2.47 µM)	0.5 (≈ 1.23 µM)	MIC [12]: 1 µg/mL (≈ 2.47 µM); MIC [13]: 0.5 µg/mL (≈ 1.23 µM); MIC (strain #23 Serratia marcescens): 1 µg/mL (≈ 2.47 µM); MIC (strain #24 Serratia marcescens): 2 µg/mL (≈ 4.93 µM); MIC [14]: 0.5 µg/mL (≈ 1.23 µM); MIC (strain #26 Shigella sonnei): 0.5 µg/mL (≈ 1.23 µM); MIC (strain #27 Shigella flexneri): 0.25 µg/mL (≈ 0.617 µM); MIC [15]: 1 µg/mL (≈ 2.47 µM); MIC [16]: 8 µg/mL (≈ 19.7 µM); MIC [17]: 8 µg/mL (≈ 19.7 µM); MIC [18]: 4 µg/mL (≈ 9.87 µM); MIC [19]: 8 µg/mL (≈ 19.7 µM); MIC [20]: 8 µg/mL (≈ 19.7 µM); MIC [21]: 8 µg/mL (≈ 19.7 µM); MIC [22]: 16 µg/mL (≈ 39.5 µM); MIC [23]: 32 µg/mL (≈ 78.9 µM)
C[C@@H](O)C1C(=O)N2C(C(=O)O)=C(CN3CC[C@H](NC(=N)N)C3)[C@H](C)C12 (stereo partly drawn) [Compound 64]	0.13 (≈ 0.37 µM)	1 (≈ 2.85 µM)	1 (≈ 2.85 µM)	0.5 (≈ 1.42 µM)	0.5 (≈ 1.42 µM)	0.5 (≈ 1.42 µM)	1 (≈ 2.85 µM)	0.5 (≈ 1.42 µM)	0.5 (≈ 1.42 µM)	0.25 (≈ 0.711 µM)	0.25 (≈ 0.711 µM)	0.5 (≈ 1.42 µM)	0.5 (≈ 1.42 µM)	1 (≈ 2.85 µM)	1 (≈ 2.85 µM)	≤ 0.008	4 (≈ 11.4 µM)	2 (≈ 5.69 µM)	1 (≈ 2.85 µM)	0.5 (≈ 1.42 µM)	MIC [12]: 2 µg/mL (≈ 5.69 µM); MIC [13]: 0.5 µg/mL (≈ 1.42 µM); MIC (strain #23 Serratia marcescens): 1 µg/mL (≈ 2.85 µM); MIC (strain #24 Serratia marcescens): 2 µg/mL (≈ 5.69 µM); MIC [14]: 0.5 µg/mL (≈ 1.42 µM); MIC (strain #26 Shigella sonnei): 0.5 µg/mL (≈ 1.42 µM); MIC (strain #27 Shigella flexneri): 0.25 µg/mL (≈ 0.711 µM); MIC [15]: 0.25 µg/mL (≈ 0.711 µM); MIC [16]: 1 µg/mL (≈ 2.85 µM); MIC [17]: 1 µg/mL (≈ 2.85 µM); MIC [18]: 0.25 µg/mL (≈ 0.711 µM); MIC [19]: 2 µg/mL (≈ 5.69 µM); MIC [20]: 2 µg/mL (≈ 5.69 µM); MIC [21]: 2 µg/mL (≈ 5.69 µM); MIC [22]: 2 µg/mL (≈ 5.69 µM); MIC [23]: 16 µg/mL (≈ 45.5 µM)
